Among the test systems are 786-0; A498; A549; HCT-116; HCT-15; HOP-62; HT-29; IGROV-1; KM-20L2; KM12; NCI-H460; NCI-H522; OVCAR-8; SF-539; SK-MEL-28; SR; U-251; UACC-257; MDA-MB-435; MDA-N.
Holding throughout (experiment): DTP human tumour cell line panel, 48 h

The source of these data is ChEMBL document CHEMBL1201862, “PubChem BioAssay data set” (2004).

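Each compound was tested at five concentrations against cells in 96-well plates for 48 hours. Abbreviation: GI50, concentration required for 50% inhibition of growth.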 Activity calls are given as the source filed them. Rule as the data show it: active = GI50 up to about 1.1 µM and inactive = higher.

As to `COc1cc2c(c(OC)c1OC)-c1ccc(SC)c(=O)cc1C(CC(=O)Oc1cccc(F)c1)C2` (stereo not drawn), the GI50 (usually the concentration at which growth is held to half of that of the control) with 786-0 is 0.114 µM (active); in the assay with A498 it was 0.0545 µM (active); with A549 it was 0.577 µM (active); with HCT-116 it was 0.321 µM (active); in the assay on HCT-15, 0.22 µM; in the assay on HOP-62, 0.685 µM (active). Besides, the GI50 in the assay on HT-29 is 0.184 µM (active); with IGROV-1 it was 0.787 µM (active); in the assay with KM-20L2, 0.0813 µM (active); in the assay with KM12, 0.13 µM (active); in the assay on NCI-H460, 0.212 µM (active); in the assay with NCI-H522 it was 0.102 µM (active). The GI50 in the assay on OVCAR-8 is 0.337 µM (active); with SF-539, 0.111 µM (active); in the assay with SK-MEL-28 it was 0.621 µM (active); in the assay with SR, 0.0542 µM (active); in the assay with U-251, 0.115 µM (active); in the assay on UACC-257 it was 14.9 µM (inactive).
Regarding `COC(=O)c1ccccc1/N=C/c1ccc(N(CCC#N)S(=O)(=O)c2ccccc2)cc1`, the GI50 in the assay on 786-0 is > 100 µM (inactive); in the assay on A498, > 100 µM (inactive); in the assay on A549, > 100 µM (inactive); in the assay on HCT-116, > 100 µM (inactive); in the assay on HCT-15 it was above 100 µM; in the assay with HOP-62, > 100 µM (inactive). The GI50 in the assay on HT-29, in the assay with IGROV-1, in the assay on KM-20L2, in the assay on KM12, in the assay with NCI-H460 and in the assay on NCI-H522 was > 100 µM (inactive) in each case. The GI50 in the assay on OVCAR-8, in the assay on SF-539, in the assay with SK-MEL-28, in the assay with SR, in the assay with U-251 and with UACC-257 was > 100 µM (inactive) throughout.
Consider `CS(=O)(=O)c1ccc(COP(N)(=O)N(CCCl)CCCl)cc1` (stereo not drawn), for which the GI50 in the assay on 786-0 is > 100 µM (inactive); with A498 it was > 100 µM (inactive); in the assay with A549, > 100 µM (inactive); with HCT-116, > 100 µM (inactive); in the assay on HCT-15, above 100 µM; in the assay with HOP-62, > 100 µM (inactive). The GI50 in the assay with HT-29, in the assay with IGROV-1, in the assay with KM-20L2, with KM12, with NCI-H460 and with NCI-H522 was > 100 µM (inactive) throughout. Further, the GI50 in the assay with OVCAR-8, in the assay on SF-539, in the assay on SK-MEL-28, with SR, in the assay on U-251 and in the assay with UACC-257 was > 100 µM (inactive) throughout.
`O=C1[C@@H]2C3SC(c4ccccc43)[C@@H]2C(=O)N1c1ccccc1`: the GI50 with 786-0 was > 74 µM (inactive); in the assay on A498, > 100 µM (inactive); with A549, > 100 µM (inactive); with HCT-116, > 100 µM (inactive); with HCT-15 it was above 100 µM; in the assay with HOP-62, > 100 µM (inactive). Further, the GI50 in the assay with HT-29, in the assay with IGROV-1, in the assay on KM-20L2, in the assay on KM12, in the assay on NCI-H460 and in the assay on NCI-H522 was > 100 µM (inactive) in each case. The GI50 was > 100 µM (inactive) in the assay with OVCAR-8; > 75 µM (inactive) with SF-539; > 100 µM (inactive) in the assay on SK-MEL-28; > 100 µM (inactive) in the assay with SR; > 66.4 µM (inactive) in the assay on U-251; > 100 µM (inactive) in the assay on UACC-257.
Take `CC[N+]1(C)CCC(O)(/C=C/c2ccccc2)C(C(=O)/C=C/c2ccccc2)C1` (stereo not drawn): the GI50 in the assay on 786-0 is 4.02 µM (inactive); in the assay on A498, 21.1 µM (inactive); in the assay with A549 it was 20.3 µM (inactive); in the assay on HCT-116, 6 µM (inactive); in the assay with HCT-15, 4.54 µM; in the assay on HOP-62, 19.6 µM (inactive). Moreover, the GI50 was 7.59 µM (inactive) in the assay with HT-29; 18.7 µM (inactive) in the assay on IGROV-1; 18.3 µM (inactive) in the assay with KM-20L2; 3.71 µM (inactive) in the assay on KM12; 12.2 µM (inactive) in the assay on MDA-MB-435; 6.11 µM (inactive) with MDA-N. Besides, the GI50 is 15 µM (inactive) in the assay on NCI-H460; 1.99 µM (inactive) with NCI-H522; 9.1 µM (inactive) in the assay on OVCAR-8; 7.43 µM (inactive) with SF-539; 7.4 µM (inactive) with SK-MEL-28; 2.34 µM (inactive) with SR. The results for the GI50 in the assay with U-251 and in the assay on UACC-257 were 8 µM (inactive) and 10.2 µM (inactive), respectively.
In the case of `C[C@H]1CC[C@H](NC(=O)N(CCCl)N=O)CC1`, the GI50 in the assay on 786-0 was 31.6 µM (inactive); with A498, 53 µM (inactive); in the assay with A549, 51.3 µM (inactive); with HCT-116 it was 39.6 µM (inactive); with HCT-15, 40.6 µM; in the assay on HOP-62, 48.3 µM (inactive). In addition, the GI50 was 51.2 µM (inactive) in the assay with HT-29; 38.8 µM (inactive) in the assay with IGROV-1; 56.4 µM (inactive) in the assay on KM-20L2; 59.3 µM (inactive) in the assay with KM12; 28.1 µM (inactive) in the assay on MDA-MB-435; 44.8 µM (inactive) in the assay with MDA-N. Besides, the GI50 in the assay with NCI-H460 is 39.1 µM (inactive); with NCI-H522, 40 µM (inactive); in the assay with OVCAR-8 it was 53.2 µM (inactive); with SF-539, 27.1 µM (inactive); with SK-MEL-28, 46.2 µM (inactive); in the assay on SR, 10.6 µM (inactive). Moreover, the GI50 was 26.7 µM (inactive) in the assay with U-251 and 46.3 µM (inactive) with UACC-257.
For the compound `Cc1ccccc1C(C#N)/C(=N/NC(=O)C(=O)NN)C(=O)Nc1cccc(C(F)(F)F)c1` (stereo not drawn), the GI50 in the assay with 786-0 was > 100 µM (inactive); in the assay on A498, > 100 µM (inactive); in the assay with A549, > 100 µM (inactive); with HCT-116 it was > 100 µM (inactive); in the assay with HCT-15 it was above 100 µM; with HOP-62, > 100 µM (inactive). In addition, the GI50 in the assay with HT-29, with IGROV-1, with KM-20L2, in the assay with KM12, with NCI-H460 and in the assay on NCI-H522 was > 100 µM (inactive) each time. Besides, the GI50 with OVCAR-8, with SF-539, in the assay on SK-MEL-28, in the assay on SR, in the assay with U-251 and in the assay with UACC-257 was > 100 µM (inactive) throughout.
In the case of `CNS(=O)(=O)NNS(=O)(=O)c1ccc2ccccc2c1`, the GI50 is > 100 µM (inactive) in the assay with 786-0; > 100 µM (inactive) in the assay on A498; > 100 µM (inactive) with A549; > 100 µM (inactive) in the assay on HCT-116; above 100 µM in the assay on HCT-15; > 100 µM (inactive) in the assay with HOP-62. Moreover, the GI50 in the assay on HT-29 is > 100 µM (inactive); in the assay on IGROV-1 it was > 100 µM (inactive); with KM-20L2, > 100 µM (inactive); with KM12, > 100 µM (inactive); in the assay on NCI-H460, 40.2 µM (inactive); in the assay with NCI-H522, > 100 µM (inactive). The GI50 was > 100 µM (inactive) in the assay with OVCAR-8; > 100 µM (inactive) in the assay with SF-539; > 100 µM (inactive) in the assay on SK-MEL-28; 80.2 µM (inactive) in the assay with SR; > 100 µM (inactive) with U-251; > 100 µM (inactive) with UACC-257.
Consider `Cc1ccccc1C1=C/C(=C(\SS/C(C(=O)c2ccc(OCC(=O)O)c(Cl)c2Cl)=C2\C=C(c3ccccc3C)SS2)C(=O)c2ccc(OCC(=O)O)c(Cl)c2Cl)SS1`, for which the GI50 in the assay on 786-0 is 33.3 µM (inactive); with A498, 32.4 µM (inactive); in the assay on A549, 46.9 µM (inactive); in the assay on HCT-116, 21.7 µM (inactive); with HCT-15, 24 µM; with HOP-62 it was 51.6 µM (inactive). Also, the GI50 in the assay on HT-29 was 33.1 µM (inactive); in the assay with IGROV-1 it was 16.4 µM (inactive); in the assay with KM-20L2 it was 37.9 µM (inactive); with KM12 it was 22.3 µM (inactive); in the assay on MDA-MB-435 it was 36.1 µM (inactive); with MDA-N it was 34.1 µM (inactive). For the same compound, the GI50 in the assay with NCI-H460 was 26.4 µM (inactive); with NCI-H522, 4.09 µM (inactive); with OVCAR-8 it was 26.3 µM (inactive); in the assay on SF-539, 17.2 µM (inactive); in the assay on SK-MEL-28, 26.4 µM (inactive); in the assay on SR it was 24.1 µM (inactive). For the same compound, the figures for the GI50 in the assay on U-251 and with UACC-257 were 8.43 µM (inactive) and 29.4 µM (inactive), respectively.
